Patent publication US20060223857A1, “Combination of a serotonin reuptake inhibitor and a glycine transporter type 1 inhibitor for the treatment of depression” (priority 2003, published 2006)

Test system: serotonin levels in rat ventral hippocampus
Assay: Microdialysis of serotonin levels in ventral hippocampus
Type: in vivo
Procedure: Male albino rats of a Wistar-derived strain (285-320 g; Harlan, Zeist, The Netherlands) were used for the experiments. Upon surgery, rats were housed individually in plastic cages (35×35×40 cm), and had free access to food and water. Animals were kept on a 12 h light schedule (light on 7:00 a.m.). The experiments are concordant with the declarations of Helsinki and were approved by the animal care committee of the faculty of mathematics and natural science of the University of Groningen.
The following drugs were used: Citalopram hydrobromide and NFPS having the structure: [drawing 3] (LU 2736N) (Lundbeck A/S, Copenhagen, Denmark). Drugs were dissolved in saline and administered s.c. Surgery […]
Twenty-μl microdialysate samples were injected via an autoinjector (CMA/200 refrigerated microsampler, CMA, Sweden) onto a 100×2.0 mm C18 Hypersil 3 μm column (Bester, Amstelveen, the Netherlands) and separated with a mobile phase consisting of 5 g/L di-ammoniumsulfate, 500 mg/L EDTA, 50 mg/L heptane sulphonic acid, 4% methanol v/v, and 30 μl/L of triethylamine, pH 4.65 at a flow of 0.4 ml/min (Shimadzu LC-10 AD). 5-HT was detected amperometrically at a glassy carbon electrode at 500 mV vs Ag/AgCl (Antec Leyden, Leiden, The Netherlands). […]

SMILES: CN(CCC(Oc1ccc(-c2ccccc2)cc1)c1ccc(F)cc1)CC(=O)O (centres unmarked) [NFPS]
- augmentation of the effect of citalopram on hippocampal serotonin levels (NFPS 10 μmol/kg s.c. co-administered with citalopram 10 μmol/kg s.c., Treatment P=0.044, Treatment vs. Time P=0.033): significantly augmented the effect of citalopram
- effect on serotonin levels in rat ventral hippocampus (NFPS alone, 10 μmol/kg s.c., microdialysis, Wistar rats): did not induce any significant effects
